From US7666354B2, “Composition for sterilization comprising ω-alkoxyperoxycarboxylic acid” (FUJIFILM Corporation, priority 2004, dated 2010)
Where two headings read alike, the source gives them in different places.

What was measured:
[1] = test system: Spores of Bacillus subtilis IFO3134; assay: Evaluation of antimicrobial activity against spores (liquid culture and agar culture after a given reaction time); format: cell-based; details: for colony formation, 15 sec / colony formation, 1 min / colony formation, 5 min: Agar culture; for colony formation, 15 sec / bacterial proliferation, 15 sec: reaction time 15 sec; for colony formation, 1 min / bacterial proliferation, 1 min: reaction time 1 min; for colony formation, 5 min / bacterial proliferation, 5 min: reaction time 5 min; for bacterial proliferation, 15 sec / bacterial proliferation, 1 min / bacterial proliferation, 5 min: Liquid culture
Method: Antimicrobial activity of the composition of the present invention against spores was evaluated.
Spores of Bacillus subtilis IFO3134 was prepared based on the preparation method of a spores stock solution described in Notification from Ministry of Health, Labour and Welfare, “Ei-nyu(Milk Hygiene)” No. 10, Jan. 29, 1996 (Heisei 8). […] The bacteria were suspended in sterilized water (3 ml), and the suspension was heated at 65° C. for 30 minutes under shaking at 160 rpm to kill trophozoites. Resulting suspension was centrifuged at 3000 rpm, and the supernatant was discarded. Sterilized water (3 ml) was added to the residue to obtain a stock solution of spores. A solution of 1.1×10^9 cfu/mL was prepared using the stock solution and subjected to the following evaluations of antimicrobial activity.
Evaluation of antimicrobial activity was conducted according to the method of Sakagami et al. (J. Antibact. Antifung. Agents., Vol. 26, 605-601, 1998). Specifically, an aqueous solution (225 μl) of each sample which was filtered with 0.2 μm paper filter was added with spores suspension (25 μl) prepared by the above described method. The mixture (concentration of bacteria: 1.1×10^8 cfu/mL) was reacted for a given period of time. From the reaction solution, 2 μL sample was corrected and added to 2 ml of SCDLP culture medium (Nissui Pharmaceutical Co., Ltd.). The medium was cultured at 37° C. under shaking at 160 rpm for 48 hours, and the presence of bacterial growth was examined. At the same time, the reaction solution (25 μL) was added to a mixture solution (225 μL) of 0.1N sodium thiosulfate and 1% catalase to inactivate a peroxycarboxylic acid and hydrogen peroxide. Resulting solution (100 μL) was inoculated to SCDLP culture agar medium (Nissui Pharmaceutical Co., Ltd., 25 mL/petri dish). The medium was cultured at 37° C. for 48 hours, and examined visually for colony formation.
Each solution prepared in Example 1, 2, 3-c, 3-f, and 3-j was diluted with distilled water for injection (Hikari pharmaceutical company) so as to obtain a solution of peroxycarboxylic acid at a concentration of 40 mM, which was used as composition 1, 2, 3, 24, and 28. The compositions were evaluated for their antimicrobial activity using the above described method. Aqueous hydrogen peroxide which contains hydrogen peroxide at a higher concentration than the hydrogen peroxide concentration of the above diluted solutions was separately evaluated in a similar manner, and results are also shown in Table 1.

[2] = Stability Evaluation 1: peracid concentration after mixing carboxylic acid and 50% aqueous hydrogen peroxide (potassium iodide/sodium thiosulfate titration); format: physicochemical; details: for peracid concentration in composition, 3 days after mixing: day 3; for peracid concentration in composition, 22 days after mixing: day 22; for peracid concentration in composition, 6 days after mixing: day 6
Excerpt: A carboxylic acid (30 mmol) and 50% aqueous hydrogen peroxide (45 mmol) were mixed, and concentration of generated peracid was quantified by potassium iodide/sodium thiosulfate titration as described in Example 1 at a constant time interval. As the carboxylic acid, 3-methoxypropionic acid and 3-ethoxypropionic acid were used. As a control for comparison, methoxyacetic acid was used.
Numbers in Table 3 indicates peracid concentration (mM) in compositions.

[3] = Judgment whether the composition meets the criteria of the fifth class of hazardous material in the Fire Defense Law (thermal analysis, pressure container test); details: aqueous composition: Compound 3 7% w/w, hydrogen peroxide 13% w/w, 3-propoxypropionic acid 32% w/w, water 48% w/w
Method: A aqueous composition of the peroxycarboxylic acid which was obtained in the above described Synthesis of compound 3 (1.6 M, 100 ml) was mixed with water (50 ml) for dilution, and the mixture was left at 25° C. for 14 days. The solution was further kept at 4° C. for 10 days. Quantification was conducted by potassium iodide/sodium thiosulfate titration as described in Example 1.
The above aqueous composition was subjected to judgment whether or not the composition meets the criteria of the fifth class of hazardous material in the Fire Defense Law.

[4] = Stability Evaluation 2: pH dependency of peroxycarboxylic acid concentration; format: physicochemical; details: 80 mM solution, FIG. 1
Method: A aqueous composition of the peroxycarboxylic acid which was obtained in the above described Synthesis of compound 3 (1.6 M, 100 ml) was diluted by addition of water (50 ml), and the mixture was left at 25° C. for 7 days. Quantification was conducted by potassium iodide/sodium thiosulfate titration as described in Example 1.
The aqueous composition was diluted with water to adjust the peroxycarboxylic acid concentration at 80 mM. Three solutions of pH 1.7, 3.0, and 5.0 were prepared, and peroxycarboxylic acid concentration was quantified by potassium iodide/sodium thiosulfate titration as described in Example 1 at a constant time intervals. The pH was adjusted by addition of dipotassium hydrogen phosphate. Assuming that peroxycarboxylic acid concentration of 80 mM is 100%, changes in peroxycarboxylic acid concentration are shown in FIG. 1.

spores = details: recently reported; cited from earlier work
[5] = test system: Spores of Bacillus subtilis IFO3134; assay: Evaluation of antimicrobial activity against spores (liquid culture and agar culture after a given reaction time); format: cell-based; details: Table 2, Acecide, 40 mM peracetic acid
[6] = cited from earlier work
[7] = carboxylic acid 30 mmol + 50% aqueous hydrogen peroxide 45 mmol
[8] = Table 2, Acecide, 40 mM peracetic acid

Compound: COCCC(=O)OO [Compound 1, 3-methoxyperoxypropionic acid]
- colony formation, 15 sec ([1]; peroxycarboxylic acid 40 mM): +
- colony formation, 1 min ([1]; peroxycarboxylic acid 40 mM): +
- colony formation, 5 min ([1]; peroxycarboxylic acid 40 mM): −
- bacterial proliferation, 15 sec ([1]; peroxycarboxylic acid 40 mM): +
- bacterial proliferation, 1 min ([1]; peroxycarboxylic acid 40 mM): +
- bacterial proliferation, 5 min ([1]; peroxycarboxylic acid 40 mM): −
- peracid concentration in composition, 3 days after mixing [2, 7]: 160 mM
- peracid concentration in composition, 5 days after mixing ([2]; carboxylic acid 30 mmol + 50% aqueous hydrogen peroxide 45 mmol, day 5): 250 mM
- peracid concentration in composition, 22 days after mixing [2, 7]: 650 mM
- stability: change of peracid concentration with passage of time (in words) ([2]; summary of Table 3): any decrease in peracid amount was not observed

Compound: CCOCCC(=O)OO [Compound 2, 3-ethoxyperoxypropionic acid]
- colony formation, 15 sec ([1]; peroxycarboxylic acid 40 mM): +
- colony formation, 1 min ([1]; peroxycarboxylic acid 40 mM): +
- colony formation, 5 min ([1]; peroxycarboxylic acid 40 mM): −
- bacterial proliferation, 15 sec ([1]; peroxycarboxylic acid 40 mM): +
- bacterial proliferation, 1 min ([1]; peroxycarboxylic acid 40 mM): +
- bacterial proliferation, 5 min ([1]; peroxycarboxylic acid 40 mM): −
- stability: change of peracid concentration with passage of time (in words) [2]: any decrease in peracid amount was not observed
- peracid concentration in composition, 3 days after mixing [2, 7]: 160 mM
- peracid concentration in composition, 6 days after mixing [2, 7]: 310 mM
- peracid concentration in composition, 22 days after mixing [2, 7]: 700 mM

Compound: CCCOCCC(=O)OO [Compound 3, peroxy-3-propoxypropionic acid]
- classification as fifth class of hazardous material in the Fire Defense Law [3]: did not classified in the fifth class of hazardous material
- pressure container test result [3]: rank 3
- thermal analysis result [3]: no hazardous
- change in peroxycarboxylic acid concentration (storage stability), pH lower than 2 ([4]; pH 1.7): a decrease in peroxycarboxylic acid concentration was faster
- storage stability, pH 3.0 ([4]; pH 3.0): significantly high storage stability
- change in peroxycarboxylic acid concentration (storage stability), pH 5 or higher ([4]; pH 5.0): a decrease in peroxycarboxylic acid concentration was faster
- colony formation, 15 sec ([1]; peroxycarboxylic acid 40 mM): +
- colony formation, 1 min ([1]; peroxycarboxylic acid 40 mM): +
- bacterial proliferation, 15 sec ([1]; peroxycarboxylic acid 40 mM): +
- bacterial proliferation, 1 min ([1]; peroxycarboxylic acid 40 mM): +
- bacterial proliferation, 5 min ([1]; peroxycarboxylic acid 40 mM): −

Compound: CCOCCCC(=O)OO [Compound 24]
- colony formation, 15 sec ([1]; peroxycarboxylic acid 40 mM): +
- colony formation, 1 min ([1]; peroxycarboxylic acid 40 mM): +
- colony formation, 5 min ([1]; peroxycarboxylic acid 40 mM): −
- bacterial proliferation, 15 sec ([1]; peroxycarboxylic acid 40 mM): +
- bacterial proliferation, 1 min ([1]; peroxycarboxylic acid 40 mM): +
- bacterial proliferation, 5 min ([1]; peroxycarboxylic acid 40 mM): −

Compound: O=C(CCOCCCl)OO [Compound 28]
- colony formation, 15 sec ([1]; peroxycarboxylic acid 40 mM): +
- colony formation, 1 min ([1]; peroxycarboxylic acid 40 mM): +
- colony formation, 5 min ([1]; peroxycarboxylic acid 40 mM): −
- bacterial proliferation, 15 sec ([1]; peroxycarboxylic acid 40 mM): +
- bacterial proliferation, 1 min ([1]; peroxycarboxylic acid 40 mM): +
- bacterial proliferation, 5 min ([1]; peroxycarboxylic acid 40 mM): −

Compound: OO [Hydrogen peroxide, reference compound]
- colony formation, 15 sec ([1]; hydrogen peroxide 2000 mM): +
- colony formation, 1 min ([1]; hydrogen peroxide 2000 mM): +
- colony formation, 5 min ([1]; hydrogen peroxide 2000 mM): +
- bacterial proliferation, 15 sec ([1]; hydrogen peroxide 2000 mM): +
- bacterial proliferation, 1 min ([1]; hydrogen peroxide 2000 mM): +
- bacterial proliferation, 5 min ([1]; hydrogen peroxide 2000 mM): +

Compound: O=CCCCC=O [glutaraldehyde]
- sterilizing effect to spores (spores): weak sterilizing effect to spores

Compound: CC(=O)OO [peracetic acid]
- colony formation, 1 min ([5]; Agar culture, reaction time 1 min): +
- colony formation, 5 min ([5]; Agar culture, reaction time 5 min): −
- bacterial proliferation, 1 min ([5]; Liquid culture, reaction time 1 min): +
- bacterial proliferation, 5 min ([5]; Liquid culture, reaction time 5 min): −
- colony formation, 15 sec [1, 8]: +
- bacterial proliferation, 15 sec [1, 8]: +

Compound: COCC(=O)OO [peroxy-methoxyacetic acid, reference compound]
- stability: change of peracid concentration with passage of time (in words) [2]: unstable
- peracid concentration in composition, 3 days after mixing [2, 7]: 530 mM
- peracid concentration in composition, 6 days after mixing [2, 7]: 540 mM
- peracid concentration in composition, 10 days after mixing ([2]; carboxylic acid 30 mmol + 50% aqueous hydrogen peroxide 45 mmol, day 10): 380 mM
- peracid concentration in composition, 14 days after mixing ([2]; carboxylic acid 30 mmol + 50% aqueous hydrogen peroxide 45 mmol, day 14): 340 mM
- peracid concentration in composition, 24 days after mixing ([2]; carboxylic acid 30 mmol + 50% aqueous hydrogen peroxide 45 mmol, day 24): 210 mM
- antibacterial effect compared with peracetic acid ([6]; J. Molecular Catalysis B: Enzymatic, 19-20, pp. 499-505 (2002)): weaker antibacterial effect than that of peracetic acid

Compound: CCC(=O)OO [peroxypropionic acid]
- sterilizing action ([6]; J. Hyg. Epid. Microbiol. Immun., 9, pp. 220-226 (1965)): effective sterilizing action

Compound: O=C(CCOCCO)OO [reference compound]
- antimicrobial activity compared with Composition 1, Composition 2 ([1]; evaluated in a similar manner to Example 4): lower than that of Composition 1, Composition 2 or the like
